These are literature values, as cited in article PMC9694544, “Conteltinib (CT-707) in patients with advanced ALK-positive non-small cell lung cancer: a multicenter, open-label, first-in-human phase 1 study” (BMC Medicine, 2022).

Read-outs that look alike come from different tables or passages of the source.

In one series the test system is ALK-positive NSCLC. As to conditions: cited from earlier work.
The subject of series [1] is patients with ALK-positive NSCLC. As to conditions: cited from earlier work.
Where [2] appears, read: ALK TKI-naïve patients, at RP2D.
Where [3] appears, read: patients who received crizotinib previously, at RP2D.
The mark [4] stands for this setting: patients who received crizotinib previously, at MTD.
The mark [5] stands for this setting: ALK TKI-naïve patients, at the dose around RP2D.
Where [6] appears, read: patients who received crizotinib previously, at the dose around RP2D.
The mark [7] stands for this setting: patients who received crizotinib previously, at the dose-expansion phase.

Consider `COc1cc(N2CCC(N3CCN(C)CC3)CC2)ccc1Nc1ncc(Cl)c(Nc2ccccc2P(C)(C)=O)n1` [brigatinib], for which, in the series with ALK-positive NSCLC (setting [2]), the ORR was 100% and the “median PFS” value is 30.8 months. In the series with ALK-positive NSCLC (setting [3]), the ORR is recorded as 72% and the “median PFS” value is given as 12.9 months. Also, the “incidence of grade ≥ 3 TRAEs” value in series [1] was 36%.

In the case of `Cc1cc(Nc2ncc(Cl)c(Nc3ccccc3S(=O)(=O)C(C)C)n2)c(OC(C)C)cc1C1CCNCC1` [ceritinib], in the series on ALK-positive NSCLC (ALK TKI-naïve patients, at MTD), the ORR is listed as 59% and the “median PFS” value is given as 18.4 months. Besides, in the series with ALK-positive NSCLC (setting [4]), the ORR was 56% and the “median PFS” value is 6.9 months. In series [1], the “incidence of grade ≥ 3 TRAEs” value was 49% and the rash is listed as 13%.

For the compound `C[C@@H]1CN(C(=O)c2ccc(NC(=O)c3cc(O[C@H](C)c4c(Cl)ccc(F)c4Cl)c(N)nn3)cc2)C[C@H](C)N1` [ensartinib], the values for the ORR with ALK-positive NSCLC (setting [5]) and in the series on ALK-positive NSCLC (setting [6]) were 80.0% and 69.0%, respectively. In addition, the “median PFS” value is given as 26.2 months in the series on ALK-positive NSCLC (setting [5]) and 9.0 months with ALK-positive NSCLC (setting [6]). The “incidence of grade ≥ 3 TRAEs” value in series [1] is 23%. Further, the rash in series [1] was 56%; in series [1] (grade ≥ 3) it was 12%.

For `COc1cc(N2CCC3(CCN(C)CC3)CC2)ccc1Nc1ncc(Cl)c(Nc2ccccc2P(C)(C)=O)n1` [iruplinalkib], the ORR with ALK-positive NSCLC (ALK TKI-naïve patients, at the dose-expansion phase) was 76.3%. Further, in the series with ALK-positive NSCLC (setting [7]), the ORR was 45.7% and the “median PFS” value is recorded as 6.9 months. Besides, in series [1], the “incidence of grade ≥ 3 TRAEs” value is given as 35% and the rash is reported as 13%.
